Results taken from US20190330142A1, “INHIBITORS OF MTOR-DEPTOR INTERACTIONS AND METHODS OF USE THEREOF” (The Regents of the University of California, priority 2016, published 2019).
Entries after “also recorded” stand apart in the source; their conditions may differ.

How the values were obtained:
[1] = test system: p21 expression; test: p21 expression immunoblot; format: cell-based
Procedure: (§1) These were then studied in more detail. […] This was clearly shown for 4d, 4e, 4 g, and 3 g.
(§2) The 8226 and MM1.S myeloma cell lines were purchased from ATCC. The cell lines were characterized by FISH analysis and shown to contain MAF/Ig translocations. Western blot confirmed a significant over-expression of DEPTOR protein. Both lines were tested for mycoplasma within the last 6 months and were negative. Western blot assay—Protein was extracted and separated by 12.5% SDS-PAGE as previously described (see new ref below). Proteins were transferred to polyvinylidene difluoride membranes and their expression was detected utilizing specific antibodies purchased from Cell Signaling (Beverly, Mass.).

[2] = test system: MM1.S MM cell line; test: MTT cytotoxicity assay, MM1.S cells; format: cell-based; details: Homo sapiens, 48 hr
Procedure: The MTT assay was performed by seeding 1-2×10^4 target cells in 0.1 ml of complete media into wells of a 96 well microtiter plate. After incubation with compounds, the reduction of MTT to formazan by live cells was determined with a microplate ELISA reader equipped with a 570 nm filter. Quadruplicate wells were run for each group and the SD of each group was always <5% of the mean.

[3] = test system: 8226 MM cell line; test: MTT cytotoxicity assay, 8226 MM cells; details: for IC50: 48 h, read-out: MTT (IC50, uM) 8226; for anti-MM cytotoxicity in MTT assay compared to parent B: 48 hr MTT
Procedure: In mTORC1, mTOR phosphorylates the p70S6 kinase. Thus, a Western blot was used to test for induction of p70 phosphorylation in this secondary screen. Compounds were tested at 0.5, 1, and 2 uM with 6 hrs in vitro exposure. […] A summary of the p70 phosphorylation data from 4 separate experiments where derivatives were used at 0.5 uM, is shown in FIG. 3B. These first 8 derivatives were also screened for cytotoxicity against the same 8226 MM cell line in 48 hr MTT assays.
P70 phosphorylation was measured in 8226 cells treated for 6 hrs. […] The structures and biological activity of all derivatives are shown in Tables 1-4, categorized by structural modification.
The MTT assay was performed by seeding 1-2×10^4 target cells in 0.1 ml of complete media into wells of a 96 well microtiter plate. After incubation with compounds, the reduction of MTT to formazan by live cells was determined with a microplate ELISA reader equipped with a 570 nm filter.
The induction of p70 phosphorylation by derivative compounds was determined by densitometry, comparing immunoblot signals of phosphorylated p70 vs total p70. This ratio was then compared to that resulting from parental compound B, with the latter ratio arbitrarily placed at ‘1’. The IC50 for MTT cytotoxicity was determined using a range of concentrations of derivatives. Percent apoptosis was enumerated by flow cytometry in drug-treated cultures by subtracting control apoptosis determined from DMSO-treated cultures.

[4] = test system: 8226 cells; test: apoptosis assay (activated caspase 3, flow cytometry) in 8226 cells; format: cell-based; details: 48 hrs
Procedure: as §1
To identify apoptotic cells, a phycoerythrin (PE)-conjugated antibody specific for activated caspase 3 (BD Biosciences) was used. For staining, 10^6 cells were washed with PB S and fixed and permeabilized with 0.5 ml cytofix/cytoperm solution. The cells were then incubated with a 1:5 dilution of PE-conjugated monoclonal anti-caspase 3 antibody for 30 mins and analyzed by flow cytometry.

[5] = test system: p70 phosphorylation (mTORC1 activity) in 8226 cells; test: p70 phosphorylation Western blot (TORC1 activity) in 8226 cells; format: cell-based; details: for p70 phosphorylation vs compound B at lower concentrations: as low as 0.25 uM; for p70 phosphorylation vs compound B at lower concentrations / induction of p70 phosphorylation / p70 phosphorylation vs the parent B: 6 hrs; for p70 phosphorylation vs the parent B: compound B arbitrarily 1
Procedure: In mTORC1, mTOR phosphorylates the p70S6 kinase.
as §2

[6] = test system: normal peripheral blood lymphocytes (PBLs); test: survival of normal peripheral blood lymphocytes versus 8226 MM cells; format: cell-based; details: 48 hr assays
Procedure: (§3) FIG. 5A-FIG. 5E depict exemplary assay data of compounds disclosed herein. […] Therapeutic indices (TIs) calculated as IC50 PBLs/IC50 for 8226 cells.
(§4) To compare anti-myeloma efficacy to non-specific toxicity, each of these 5 active derivatives were compared to compound B in their ability to inhibit survival of 8226 MM cells versus normal peripheral blood lymphocytes (PBLs). In head-to-head experiments, IC50 values for each target were calculated and compared. […] These derivatives were also tested for their anti-MM cytotoxicity in isogenic lines with RAPTOR knockdown.

[7] = target: T1, DEPTOR/mTOR binding (Homo sapiens, UniProt Q8TB45); test: DEPTOR/mTOR co-immunoprecipitation in 8226 MM cells; format: cell-based; details: 0.5 uM, 6 hrs
T1 construct: Western blot confirmed a significant over-expression of DEPTOR protein; host or cells: 8226 multiple myeloma cells
T1 sequence (Q8TB45 whole entry): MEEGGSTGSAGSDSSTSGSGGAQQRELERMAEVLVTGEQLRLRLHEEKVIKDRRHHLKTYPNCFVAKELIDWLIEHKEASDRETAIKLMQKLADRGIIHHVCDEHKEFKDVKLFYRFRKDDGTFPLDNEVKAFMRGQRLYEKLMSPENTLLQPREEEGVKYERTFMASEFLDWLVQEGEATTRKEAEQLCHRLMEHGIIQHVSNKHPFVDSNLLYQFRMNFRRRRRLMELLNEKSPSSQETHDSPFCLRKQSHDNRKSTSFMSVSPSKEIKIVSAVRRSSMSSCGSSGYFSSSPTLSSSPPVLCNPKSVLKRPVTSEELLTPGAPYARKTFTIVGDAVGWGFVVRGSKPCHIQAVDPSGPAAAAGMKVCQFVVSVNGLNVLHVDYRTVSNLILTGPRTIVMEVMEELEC

[8] = test system: RAPTOR-silenced MM cells; test: MTT cytotoxicity in RAPTOR-silenced MM cells; format: cell-based; details: 48 hrs
Procedure: as §3, §4
The short hairpin RNAs (shRNA)/pLKO.1, targeting RAPTOR or a scrambled sequence (control) were obtained from Addgene. Lentivirus was produced by the UCLA Vector Core facility and stable cell lines were made by transducing cells with lentivirus and selecting in […].

[9] = target: T2, DEPTOR-mTOR interaction (Homo sapiens, UniProt Q8TB45); test: yeast-2-hybrid screen of NCI library; format: cell-based; details: pilot screening, hits
T2 construct: expressed in transfected cells; host or cells: yeast (two-hybrid)
T2 sequence (Q8TB45 whole entry): as above
Text: The third compound, NSC118305, presented several positions for variation but we were worried about the conjugated diene unit since such polyolefinic units might give a rise to non-selective toxicity. […] Therefore the final compound shown, NSC 126405, which was called simply compound B, was chosen as the first compound to modify to try to improve its activity.

[10] = 8226 cells, 0.5 uM, compared to compound B

CC(C)(C)C(=O)NN=C1C(Cl)=C(Cl)C(Cl)=C1Cl [4d, N′-(Perchlorocyclopenta-2,4-dien-1-ylidene)pivalohydrazide]
p21 expression compared to parent compound B [1]: enhanced p21 expression | IC50 [2]: 2 µM | IC50 [3]: 0.12 µM | anti-MM cytotoxicity in MTT assay compared to parent B [3]: enhanced cytotoxic effects | apoptosis activity compared to parent compound B [4]: enhanced compared to parent compound B | p70 phosphorylation vs compound B at lower concentrations [5]: significantly more effective

NN=c1c2ccccc2oc2ccccc12 [6b, (9H-Xanthen-9-ylidene)hydrazine]
IC50 [2]: > 5 µM | IC50 [3]: > 5 µM | anti-MM cytotoxicity in MTT assay compared to parent B [3]: did not show any improvement | induction of p70 phosphorylation [5, 10]: did not show any improvement | p70 phosphorylation vs the parent B ([5]; 8226 cells, 0.5 uM): no increase

CN(C)N=C1C(Cl)=C(Cl)C(Cl)=C1Cl [compound 3a, 1,1-Dimethyl-2-(perchlorocyclopenta-2,4-dien-1-ylidene)hydrazine]
IC50 [2]: > 3 µM | IC50 [3]: > 3 µM | p70 phosphorylation vs the parent B ([5]; 8226 cells, 0.5 uM): no increase

CC(C)(C)OC(=O)NN=C1c2ccccc2-c2ccccc21 [6e, tert-Butyl 2-(9H-fluoren-9-ylidene)hydrazine-1-carboxylate]
IC50 [2]: > 5 µM | IC50 [3]: > 5 µM | anti-MM cytotoxicity in MTT assay compared to parent B [3]: did not show any activity | induction of p70 phosphorylation [5, 10]: did not show any activity | p70 phosphorylation vs the parent B ([5]; 8226 cells, 0.5 uM): no increase

Fc1ccc(NN=C2C(Cl)=C(Cl)C(Cl)=C2Cl)cc1 [3k, 1-(4-Fluorophenyl)-2-(perchlorocyclopenta-2,4-dien-1-ylidene)hydrazine]
IC50 [2]: 1.3 µM | therapeutic index (IC50 PBLs/IC50 for 8226 cells) compared to compound B [6]: significantly improved therapeutic indices | IC50 [3]: 0.7 µM | anti-MM cytotoxicity in MTT assay compared to parent B [3]: enhanced cytotoxic effects | DEPTOR/mTOR binding in MM cells [7]: prevented DEPTOR/mTOR binding | cytotoxicity against RAPTOR-silenced MM cells vs control shSCRAMBLE [8]: significantly decreased cytotoxicity | apoptosis activity compared to parent compound B [4]: enhanced compared to parent compound B | induction of p70 phosphorylation [5, 10]: much better activity | p70 phosphorylation vs compound B at lower concentrations [5]: significantly more effective

O=C(NN=C1C(Cl)=C(Cl)C(Cl)=C1Cl)c1ccccc1 [compound 4a, N′-(Perchlorocyclopenta-2,4-dien-1-ylidene)benzohydrazide]
IC50 [2]: 0.8 µM | IC50 [3]: 0.6 µM | anti-MM cytotoxicity in MTT assay compared to parent B [3]: enhanced cytotoxic effects | toxicity to 8226 cells in p70 experiment ([5]; 0.5 uM): considerable cell death | enhancement of p70 phosphorylation ([5]; 8226 cells, 0.05-0.2 uM): no enhancement of p70 phosphorylation | induction of p70 phosphorylation ([5]; 8226 cells, 1 or 2 uM): toxic and showed degradation of p70

ClC1=C(Cl)C(Cl)=C(Cl)C1=NNC1CCCCC1 [3b, 1-Cyclohexyl-2-(perchlorocyclopenta-2,4-dien-1-ylidene)hydrazine]
IC50 [2]: > 3 µM | IC50 [3]: > 3 µM | p70 phosphorylation vs the parent B ([5]; 8226 cells, 0.5 uM): no increase

COc1cccc(NN=C2C(Cl)=C(Cl)C(Cl)=C2Cl)c1 [3i, 1-(3-Methoxyphenyl)-2-(perchlorocyclopenta-2,4-dien-1-ylidene)hydrazine]
IC50 [2]: > 3 µM | IC50 [3]: > 3 µM | p70 phosphorylation vs the parent B ([5]; 8226 cells, 0.5 uM): no increase

Fc1ccccc1NN=C1C(Cl)=C(Cl)C(Cl)=C1Cl [3j, 1-(2-Fluorophenyl)-2-(perchlorocyclopenta-2,4-dien-1-ylidene)hydrazine]
IC50 [2]: > 3 µM | IC50 [3]: > 3 µM | induction of p70 phosphorylation [5, 10]: no activity | p70 phosphorylation vs the parent B ([5]; 8226 cells, 0.5 uM): no increase

Fc1cccc(NN=C2c3ccccc3-c3ccccc32)c1 [6d, 1-(9H-Fluoren-9-ylidene)-2-(3-fluorophenyl)hydrazine]
IC50 [2]: > 5 µM | IC50 [3]: > 5 µM | anti-MM cytotoxicity in MTT assay compared to parent B [3]: did not show any activity | induction of p70 phosphorylation [5, 10]: did not show any activity | p70 phosphorylation vs the parent B ([5]; 8226 cells, 0.5 uM): no increase

CN(C)c1ccc(/C=C2\C=Cc3ccccc32)cc1F [NSC118305]
inhibition of the DEPTOR-mTOR interaction [9]: specifically inhibited the DEPTOR-mTOR interaction

CC(C)(C)NN=C1C(Cl)=C(Cl)C(Cl)=C1Cl [compound 3c, 1-(tert-Butyl)-2-(perchlorocyclopenta-2,4-dien-1-ylidene)hydrazine]
IC50 [2]: > 3 µM | IC50 [3]: > 3 µM | induction of p70 phosphorylation [5, 10]: only modest activity | p70 phosphorylation vs the parent B ([5]; 8226 cells, 0.5 uM): no increase

CCCCCCCCNS(=O)(=O)c1ccccc1 [NSC119670]
inhibition of the DEPTOR-mTOR interaction [9]: specifically inhibited the DEPTOR-mTOR interaction

ClC1=C(Cl)C(Cl)=C(Cl)C1=NN(c1ccccc1)c1ccccc1 [3l, 2-(Perchlorocyclopenta-2,4-dien-1-ylidene)-1,1-diphenylhydrazine]
IC50 [2]: > 3 µM | IC50 [3]: > 3 µM | p70 phosphorylation vs the parent B ([5]; 8226 cells, 0.5 uM): no increase

O=C(c1ccccc1)N(N=C1C(Cl)=C(Cl)C(Cl)=C1Cl)C(=O)c1ccccc1 [compound 4b, N-Benzoyl-N′-(perchlorocyclopenta-2,4-dien-1-ylidene)benzohydrazide]
IC50 [2]: 2 µM | IC50 [3]: 0.8 µM | anti-MM cytotoxicity in MTT assay compared to parent B [3]: lower IC50s; also recorded: enhanced cytotoxic effects | induction of p70 phosphorylation [5, 10]: more effective than the parent compound B

O=C(c1ccc(F)cc1)N(N=C1C(Cl)=C(Cl)C(Cl)=C1Cl)C(=O)c1ccc(F)cc1 [compound 4e, 4-Fluoro-N-(4-fluorobenzoyl)-N′-(perchlorocyclopenta-2,4-dien-1-ylidene)benzohydrazide]
p21 expression compared to parent compound B [1]: enhanced p21 expression | IC50 [2]: 0.3 µM | IC50 [3]: 0.25 µM | anti-MM cytotoxicity in MTT assay compared to parent B [3]: enhanced cytotoxic effects | apoptosis activity compared to parent compound B [4]: enhanced compared to parent compound B | p70 phosphorylation vs compound B at lower concentrations [5]: significantly more effective
